# “Also recorded” adds a separate entry of the source.
# T1: F3, axonin-1 and TAX-1 (Homo sapiens, UniProt Q02246)
# T1 sequence (Q02246 31-1012): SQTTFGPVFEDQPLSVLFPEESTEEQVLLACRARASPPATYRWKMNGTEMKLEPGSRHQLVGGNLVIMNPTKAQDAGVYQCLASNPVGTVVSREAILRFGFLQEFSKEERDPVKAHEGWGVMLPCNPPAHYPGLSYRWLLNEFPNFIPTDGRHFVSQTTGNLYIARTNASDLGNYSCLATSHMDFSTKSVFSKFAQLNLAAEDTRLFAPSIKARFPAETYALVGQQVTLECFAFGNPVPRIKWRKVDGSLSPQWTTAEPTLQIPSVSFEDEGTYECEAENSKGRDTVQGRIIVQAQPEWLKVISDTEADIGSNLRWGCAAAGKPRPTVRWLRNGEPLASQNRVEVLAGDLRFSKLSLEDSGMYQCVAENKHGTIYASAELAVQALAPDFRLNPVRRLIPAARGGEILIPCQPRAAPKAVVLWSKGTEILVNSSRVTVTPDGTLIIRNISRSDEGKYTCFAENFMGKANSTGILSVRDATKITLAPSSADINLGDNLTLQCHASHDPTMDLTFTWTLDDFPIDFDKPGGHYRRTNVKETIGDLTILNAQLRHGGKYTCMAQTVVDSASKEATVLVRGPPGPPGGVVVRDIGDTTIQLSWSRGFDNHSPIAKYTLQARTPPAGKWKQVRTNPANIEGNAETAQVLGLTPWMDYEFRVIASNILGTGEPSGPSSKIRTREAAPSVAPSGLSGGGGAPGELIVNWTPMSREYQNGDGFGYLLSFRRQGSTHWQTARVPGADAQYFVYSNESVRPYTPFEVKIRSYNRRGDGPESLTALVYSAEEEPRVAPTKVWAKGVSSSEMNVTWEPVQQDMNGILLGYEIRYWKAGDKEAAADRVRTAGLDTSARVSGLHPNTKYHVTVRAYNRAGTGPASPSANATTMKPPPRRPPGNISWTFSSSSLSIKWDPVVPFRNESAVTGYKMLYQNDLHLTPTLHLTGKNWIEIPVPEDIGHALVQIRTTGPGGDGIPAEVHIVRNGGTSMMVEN
# B1: D598N: L1Fc chimera with missense mutation D598N in Ig domain 6 (protein)
# chain: IQIPEEYEGHHVMEPPVITEQSPRRLVVFPTDDISLKCEASGKPEVQFRWTRDGVHFKPKEELGVTVYQSPHSGSFTITGNNSNFAQRFQGIYRCFASNKLGTAMSHEIRLMAEGAPKWPKETVKPVEVEEGESVVLPCNPPPSAEPLRIYWMNSKILHIKQDERVTMGQNGNLYFANVLTSDNHSDYICHAHFPGTRTIIQKEPIDLRVKATNSMIDRKPRLLFPTNSSSHLVALQGQPLVLECIAEGFPTPTIKWLRPSGPMPADRVTYQNHNKTLQLLKVGEEDDGEYRCLAENSLGSARHAYYVTVEAAPYWLHKPQSHLYGPGETARLDCQVQGRPQPEVTWRINGIPVEELAKDQKYRIQRGALILSNVQPSDTMVTQCEARNRHGLLLANAYIYVVQLPAKILTADNQTYMAVQGSTAYLLCKAFGAPVPSVQWLDEDGTTVLQDERFFPYANGTLGIRDLQANDTGRYFCLAANDQNNVTIMANLKVKDATQITQGPRSTIEKKGSRVTFTCQASFDPSLQPSITWRGDGRDLQELGDSDKYFIEDGRLVIHSLDYSDQGNYSCVASTELNVVESRAQLLVVGSPGPVPRLVLSDLHLLTQSQVRVSWSPAEDHNAPIEKYDIEFEDKEMAPEKWYSLGKVPGNQTSTTLKLSPYVHYTFRVTAINKYGPGEPSPVSETVVTPEAAPEKNPVDVKGEGNETTNMVITWKPLRWMDWNAPQVQYRVQWRPQGTRGPWQEQIVSDPFLVVSNTSTFVPYEIKVQAVNSQGKGPEPQVTIGYSGEDYPQAIPELEGIEILNSSAVLVKWRPVDLAQVKGHLRGYNVTYWREGSQRKHSKRHIHKDHVVVPANTTSVILSGLRPYSSYHLEVQAFNGRGSGPASEFTFSTPEGVPGHPEALHLECQSNTSLLLRWQPPLSHNGVLTGYVLSYHPLDEGGKGQLSFNLRDPELRTHNLTDLSPHLRYRFQLQATTKEGPGEAIVREGGTMALSGISDFGNISATAGENYSVVSWVPKEGQCNFRFHILFKALGEEKGGASLSPQYVSYNQSSYTQWDLQPDTDYEIHLFKERMFRHQMAVKTNGTGRVRLPPAGFATE
# modifications: left off: a dimerising Fc or GST
# Columns and labels:
# [1] = tested on: Sema3A-induced endocytosis in COS7 cells co-expressing L1 and NP-1; experiment: Rhodamine-Dextran uptake in COS7 cells co-expressing L1 and NP-1; format: cell-based; details: 15 min, peptide 10^−5M
# Procedure: (§1) Neonatal cortical cells or COS7 cells transfected with expression vectors for L1 and NP-1 were incubated for 15 min with Rhodamine-Dextran (2 mg/ml) mixed to a solution of Sema3A-AP supernatant, Sema3A and peptide (10^−5M), peptide alone (10^−5M) or control supernatant. Cells were fixed with PFA 4% and processed for immunocytochemistry as described in the above sections. To detect intracellular proteins, cells were permeabilized with methanol for 2 min.
# (§2) Therefore it has been tested whether L1 mimetic peptide was able to block endocytosis. To visualize endocytosis we examined the uptake of Rhodamine-Dextran applied on live cortical cultures in various conditions. Cells were treated for 15 min with Rhodamine-Dextran together with Sema3A alone, Sema3A combined with the L1 mimetic peptide, peptide alone or untreated as control conditions. Strikingly, uptake of Rhodamine-Dextran was exclusively observed when cells were treated with Sema3A alone. Under this condition, spots of internalized fluorescence were observed along axon shafts and surrounding the cell bodies. […] To correlate this process with L1/NP-1 cis and trans interactions, the experiments of Rhodamine-Dextran uptake were performed on COS7 cells transfected to co-express L1 and NP-1 (FIG. 6B).
# [2] = tested on: Sema3A-induced co-internalization of L1 and NP-1; experiment: Immunocytochemical detection of cell-surface L1 and NP-1; format: cell-based; details: peptide 10^−5M
# Procedure: as §1
# In parallel, cells submitted to the same treatments were processed for immunocytochemical detection of L1 and NP-1. […] Furthermore, in the Sema3A-treated cultures L1 and NP-1 immunoreactivities were detected after permeabilization, as co-localized cytoplasmic patches (FIGS. 7F-7H).
# [3] = tested on: cortical axons repelled by Sema3A secreted from the ventral spinal cord; experiment: Co-culture of cortical slices and ventral spinal cord explants (axon guidance response to Sema3A); format: cell-based, mice
# How it was run: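 Cortical slices from P0–P2 mice were co-cultured in a 3D plasma clot with ventral cervical spinal cord explants, alone or with L1Fc chimeras (3 μg/ml), ODQ (10^−5 M) or 7NI ([…]). After 1–2 DIV and PFA fixation, guidance was scored from −2 (repulsion) to +2 (attraction). Axon number and the three longest fibre lengths were measured in proximal and distal 600 μm regions.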
# L1/NP-1 complex = experiment: Co-immunoprecipitation of the L1/NP-1 complex in presence of peptide; format: binding; details: Sema3A combined to the peptide
# Procedure: COS cells were transfected with various expression vectors coding for full-length HA-tagged NP-1, myc-tagged cyt-deleted NP-1, wild-type L1, and L1 mutant constructs (G121S, A426D, L120V) using a lipofection transfection method (lipofectamine). After 2 DIV, cells were lysed with immunoprecipitation buffer (IP buffer: Hepes 25 mM, EDTA 5 mM, MgCl2 1 mM, PMSF 2 mM, glycerol 10% and triton X100 1%, pH 7). The lysate was incubated at 4° C. for 30 min, centrifuged for 5 min and pre-cleared with protein A-Sepharose for 2 hrs at 4° C. Samples were immunoprecipitated with mouse anti-HA (3μl, clone 12CA5, Roche), rabbit anti-L1 antibodies (3 μl), mouse anti-myc antibodies (3 μl, 9E 10, Sigma) coupled to rabbit anti-mouse antibodies on protein A preformed complexes for 16 hrs at 4° C. The beads were washed, and the precipitates analyzed by immunoblot using anti-HA (1:1000) and anti-L1 (1:1000) antibodies.
# A possible molecular mechanism by which soluble L1 and its mimetic peptide could exert their modulatory effect on Sema3A signaling is that they compete with transmembrane L1 in the L1/NP-1 complex. To address this issue we examined in immunoprecipitation experiments the L1/NP-1 complex in conditions mimicking either a repulsive (Sema3A alone) or an attractive (Sema3A combined to the peptide) environment. […]
# [4] = tested on: Sema3A-induced endocytosis in neonatal cortical cells; experiment: Rhodamine-Dextran uptake in neonatal cortical cells; format: cell-based; details: 15 min, peptide 10^−5M
# Procedure: as §1, §2
# NP-1 = experiment: Binding of L1Fc chimeras to NP-1 expressing COS7 cells (immunofluorescence)
# Procedure: The mutant L1Fc chimeras were produced and purified as described previously (De Angelis et al., 1999). Briefly, COS-7 cells were transiently transfected with 10 μg DNA per 150 mm culture dish, the soluble Fc chimeric protein was allowed to accumulate in the media for 6 days and was recovered and purified by protein A-Sepharose affinity chromatography. In the binding experiments, L1Fcs were cross-linked to anti-human Fc antibodies (50 μg/ml, Jackson Immunoresearch) for 1 hr at 37° C. Binding detection to NP-1 requested concentrations of L1Fcs 10 folds higher than L1. Antibody conjugated L1-Fc protein was then incubated with monolayers of COS7 cells transiently transfected with expression vectors encoding full length human L1 or myc-tagged NP-1 where the cytoplasmic domain is deleted (gift of J. Raper, 2000 and Renzi et al., 1999). Following incubation, the cells were fixed with 4% PFA, and processed for double-immunofluorescence detection. NP-1 was detected using a mouse anti-c myc antibody (clone 9E10, Sigma) and L1 using a rat monoclonal anti-L1 antibody. Secondary antibody anti-c-myc (Texas-red conjugated anti-mouse antibodies) was used to detect NP-1, anti-L1 (Texas red conjugated anti-rat antibodies) to detect L1, and anti-Fc (FITC conjugated anti-rabbit antibodies) to detect bound L1Fc chimeras. After secondary antibody incubation, the cells were washed with PBS and mounted in Mowiol (Calbiochem).
# Next, we examined the ability of the mutant L1 Fc chimeras to bind NP-1. COS7 cells were transfected with a vector encoding the extracellular and transmembrane domains of NP-1 fused to a myc tag (ANP-1, Renzi et al., J. Neurosci., 15:7870-7880, 1999), and incubated with the mutant L1Fc chimeras. Binding was detected by immunofluorescence. […] Binding of L120V, G121S and A426D L1Fcs to NP-1 is illustrated in FIG. 3.
# F3, axonin-1 and TAX-1 [5] = details: F3, axonin-1 (and TAX-1 where stated); cited from earlier work
# F3, axonin-1 and TAX-1 [6] = target: T1, F3, axonin-1 and TAX-1; details: TAX-1; cited from earlier work
# L1 = details: mutant bound to itself; cited from earlier work
# Sequence of L1/NP-1 complex (O14786 22-923): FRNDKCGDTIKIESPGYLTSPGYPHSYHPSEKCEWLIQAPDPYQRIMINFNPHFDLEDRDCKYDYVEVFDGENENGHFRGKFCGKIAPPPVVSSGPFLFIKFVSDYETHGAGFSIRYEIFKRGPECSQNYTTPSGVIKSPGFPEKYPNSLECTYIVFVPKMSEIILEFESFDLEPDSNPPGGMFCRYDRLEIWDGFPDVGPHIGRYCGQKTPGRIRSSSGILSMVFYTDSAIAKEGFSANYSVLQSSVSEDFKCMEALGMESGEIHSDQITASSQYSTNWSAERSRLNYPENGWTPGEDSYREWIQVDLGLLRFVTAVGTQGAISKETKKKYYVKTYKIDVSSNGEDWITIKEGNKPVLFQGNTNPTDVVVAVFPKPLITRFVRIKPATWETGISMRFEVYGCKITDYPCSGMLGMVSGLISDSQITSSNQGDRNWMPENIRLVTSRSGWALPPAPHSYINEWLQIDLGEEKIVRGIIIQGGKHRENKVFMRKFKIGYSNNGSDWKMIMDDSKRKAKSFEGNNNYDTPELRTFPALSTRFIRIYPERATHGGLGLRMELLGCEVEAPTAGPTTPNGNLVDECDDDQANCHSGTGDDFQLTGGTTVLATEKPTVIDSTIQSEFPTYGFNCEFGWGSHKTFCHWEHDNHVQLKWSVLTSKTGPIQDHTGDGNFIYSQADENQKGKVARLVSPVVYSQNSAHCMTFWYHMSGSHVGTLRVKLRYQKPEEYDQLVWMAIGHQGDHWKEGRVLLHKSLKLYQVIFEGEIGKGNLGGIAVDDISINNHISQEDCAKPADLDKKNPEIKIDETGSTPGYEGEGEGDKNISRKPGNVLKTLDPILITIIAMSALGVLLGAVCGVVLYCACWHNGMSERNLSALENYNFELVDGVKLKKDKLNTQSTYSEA
# Sequence of L1/NP-1 complex (P32004 20-1257 partner): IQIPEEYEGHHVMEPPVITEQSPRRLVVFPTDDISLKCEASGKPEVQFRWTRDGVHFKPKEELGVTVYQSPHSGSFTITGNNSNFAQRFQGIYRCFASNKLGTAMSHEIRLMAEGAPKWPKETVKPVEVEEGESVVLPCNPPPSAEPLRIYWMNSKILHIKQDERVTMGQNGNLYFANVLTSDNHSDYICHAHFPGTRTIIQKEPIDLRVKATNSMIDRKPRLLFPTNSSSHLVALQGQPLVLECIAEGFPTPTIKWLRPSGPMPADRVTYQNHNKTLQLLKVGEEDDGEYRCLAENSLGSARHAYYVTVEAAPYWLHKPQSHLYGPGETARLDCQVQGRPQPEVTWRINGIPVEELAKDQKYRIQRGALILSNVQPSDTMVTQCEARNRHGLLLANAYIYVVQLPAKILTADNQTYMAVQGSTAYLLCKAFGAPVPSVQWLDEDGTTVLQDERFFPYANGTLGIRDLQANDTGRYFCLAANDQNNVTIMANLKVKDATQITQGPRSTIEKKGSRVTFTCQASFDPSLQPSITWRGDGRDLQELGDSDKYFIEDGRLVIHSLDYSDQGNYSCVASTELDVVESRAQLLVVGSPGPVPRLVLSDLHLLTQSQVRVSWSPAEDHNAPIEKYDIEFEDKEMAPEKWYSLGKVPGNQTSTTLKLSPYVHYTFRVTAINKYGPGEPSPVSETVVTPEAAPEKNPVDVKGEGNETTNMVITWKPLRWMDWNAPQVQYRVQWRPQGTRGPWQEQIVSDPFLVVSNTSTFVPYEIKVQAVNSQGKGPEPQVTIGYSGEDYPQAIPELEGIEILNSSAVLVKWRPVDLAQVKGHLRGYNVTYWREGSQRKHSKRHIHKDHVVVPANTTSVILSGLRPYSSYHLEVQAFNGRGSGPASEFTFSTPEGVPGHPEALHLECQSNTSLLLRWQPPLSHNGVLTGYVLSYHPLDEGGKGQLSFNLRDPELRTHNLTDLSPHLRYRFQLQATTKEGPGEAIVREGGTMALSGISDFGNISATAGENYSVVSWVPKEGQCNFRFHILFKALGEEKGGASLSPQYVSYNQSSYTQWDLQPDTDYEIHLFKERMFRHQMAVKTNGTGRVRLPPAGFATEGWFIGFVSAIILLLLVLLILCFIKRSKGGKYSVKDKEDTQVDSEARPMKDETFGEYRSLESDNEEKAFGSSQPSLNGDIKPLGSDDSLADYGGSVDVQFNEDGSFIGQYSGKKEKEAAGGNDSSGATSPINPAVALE
Molecule,"Rhodamine-Dextran uptake, Sema3A combined with peptide [1]","Rhodamine-Dextran uptake, peptide alone [1]","Rhodamine-Dextran uptake, Sema3A combined with peptide ([1]; listed as mimetic peptide)","Rhodamine-Dextran uptake, peptide alone ([1]; listed as mimetic peptide)","L1 and NP-1 cell surface expression, Sema3A combined with peptide [2]","L1 and NP-1 cell surface expression, peptide alone [2]","L1 and NP-1 cell surface expression, Sema3A combined with peptide ([2]; listed as switching peptide)","L1 and NP-1 cell surface expression, peptide alone ([2]; listed as switching peptide)",switching of Sema3A repulsion to attraction by peptide ([3]; peptide at 10^−5 and 10^−6M),conversion of Sema3A-induced chemorepulsion into attraction by peptide ([3]; peptide at 10^−6M),cis interaction between L1 and NP-1 in presence of the peptide (L1/NP-1 complex),"Rhodamine-Dextran uptake, Sema3A combined with peptide ([4]; listed as L1 mimetic peptide)","Rhodamine-Dextran uptake, peptide alone ([4]; listed as L1 mimetic peptide)","Rhodamine-Dextran uptake, Sema3A combined with peptide ([4]; listed as peptide mimicking soluble L1)",binding to NP-1 expressing cells (NP-1),switching of Sema3A repulsion to attraction by L1Fc chimera ([3]; chimera 3 μg/ml in culture medium),"effect of mutation on heterophilic binding (F3, axonin-1 and TAX-1 [5])","effect of mutation on heterophilic binding to TAX-1 (F3, axonin-1 and TAX-1 [6])",effect of mutation on homophilic binding (L1)
"FASNKL (Description of the Artificial sequence Derived from the human amino-acid sequence of L1 Ig1 domain) [FASNKL120, six amino-acid peptide from L1 Ig1 domain]",This process was blocked,no endocytosis could be detected,but not Sema3A combined with the mimetic peptide induced internalization,No fluorescent labeling was detected,the two proteins were detected; also recorded: blocked by the peptide; also recorded: detected on the cell membrane,cell surface expression was observed,this process was blocked,the two proteins were detected,switched Sema3A repulsion to attraction,successfully converted Sema3A-induced chemorepulsion into attraction,did not abrogate the cis interaction between L1 and NP-1,blocks Sema3A-induced endocytosis; also recorded: Internalization was blocked,no uptake of Rhodamine-Dextran could be detected; also recorded: Uptake of Rhodamine-Dextran was not detected,blocks Sema3A-induced endocytosis,,,,,
B1,,,,,,,,,,,,,,,bound NP-1 expressing cells,able to reverse Sema3A repulsion to attraction; also recorded: efficiently induce switching of Sema3A repulsion to attraction; also recorded: switched Sema3A from repulsion to attraction to the same extent as wild type L1Fc,significantly reduces,though not to TAX-1,very modest effect

# Source: US20060058504A1, “Peptides capable of inducing attraction to the axonal growth and their use for treating neurodegenerative diseases” (Centre National de la Recherche Scientific (CNRS), priority 2002, published 2006)
